In patent US8574556B2, “Antibacterial pharmaceutical composition comprising Aceriphyllum rossii extract and active compounds isolated therefrom” (Korea Research Institute of Bioscience and Biotechnology, priority 2008, dated 2013):
In brackets after ≈: the same amount, converted by molar mass. Where two headings read alike, the source gives them in different places.

How the values were obtained:
Assay type in all cases: cell-based
[1] = system: Staphylococcus aureus, methicillin-resistant S. aureus, and quinolone-resistant S. aureus; test: Broth microdilution MIC, summary over S. aureus strains; settings: range over Staphylococcus aureus, MRSA and QRSA strains (text summary of Table 2)
Experimental: (§1) Test strains were cultured in a Mueller Hinton broth, and the antibacterial activities were determined by a broth microdilution assay. The test strains were grown to the mid-logarithmic phase, and diluted to a concentration of 10^5/ml with the same broth. 0.2 ml of the cells was added to each well of 96-well plates. The samples prepared in Examples 1 and 2 and Comparative Example 1 were serially diluted 2-fold, and added to the plates. The cells were incubated at 30° C. for 18 hrs, and cell growth was measured at 650 nm.
(§2) The antibacterial activity of Aceriphyllum rossii extract was determined with respect to Staphylococcus aureus, and the antibacterial activities of aceriphyllic acid A and 3-oxo-12-oleanen-27-oic acid were determined with respect to 15 different types of strains. Triclosan, oxacillin, and norfloxacin, which are commercially available antibiotics, were used for comparison.

[2] = system: cariogenic bacteria (Streptococcus mutans); test: Broth microdilution MIC, for cariogenic bacteria; settings: Streptococcus mutans (text summary of Table 2)
Experimental: as §1, §2

[3] = system: Staphylococcus aureus RN4220; test: Broth microdilution MIC
Experimental: as §1, §2

[4] = system: Staphylococcus aureus CCARM3506(MRSA); test: Broth microdilution MIC
Experimental: as §1, §2

[5] = system: Staphylococcus aureus CCARM3519(QRSA); test: Broth microdilution MIC
Experimental: as §1, §2

[6] = system: Streptococcus mutans KCTC3289; test: Broth microdilution MIC
Experimental: as §1, §2

[7] = system: Staphylococcus aureus KCTC1916; test: Broth microdilution MIC
Experimental: as §1, §2

[8] = system: Micrococcus luteus KCTC1056; test: Broth microdilution MIC
Experimental: as §1, §2

[9] = system: Bacillus subtilis KCTC1021; test: Broth microdilution MIC
Experimental: as §1, §2

[10] = system: Acinetobacter calcoaceticus KCTC2357; test: Broth microdilution MIC
Experimental: as §1, §2

[11] = system: Streptococcus pneumoniae KCTC3932; test: Broth microdilution MIC
Experimental: as §1, §2

[12] = system: Staphylococcus aureus CCARM3167(MRSA); test: Broth microdilution MIC
Experimental: as §1, §2

[13] = system: Staphylococcus aureus CCARM3505(QRSA); test: Broth microdilution MIC
Experimental: as §1, §2

[14] = system: Enterococcus faecium KCTC3122; test: Broth microdilution MIC
Experimental: as §1, §2

[15] = system: Streptococcus mutans KCTC3065; test: Broth microdilution MIC
Experimental: as §1, §2

[16] = system: Staphylococcus aureus 503; test: Broth microdilution MIC
Experimental: as §1, §2

[17] = system: Streptococcus mutans KCTC5248; test: Broth microdilution MIC
Experimental: as §1, §2

[18] = system: Propionibacterium acnes ATCC6919; test: Broth microdilution MIC, anaerobic RCMI liquid media
Experimental: Propionibacterium acnes was cultured in RCMI liquid media under anaerobic conditions, and the antibacterial activities were determined by a broth microdilution assay. The test strain was pre-cultured in liquid media at 37° C. for 1 to 2 days. 15 μl of test material dissolved in DMSO was added to 3 ml of broth to a concentration of 32 ppm. The sample was serially diluted 2-fold to prepare seven samples with different concentrations. The samples were added to the pre-cultured broth to a microbial concentration of 10^5-6 cfu/ml, and cultured for 1-3 days, followed by measurement of cell growth.
as §2

[19] = system: Acinetobacter calcoaceticus, Micrococcus luteus, and Bacillus subtilis; test: Broth microdilution MIC, text summary; settings: range over Acinetobacter calcoaceticus, Micrococcus luteus and Bacillus subtilis (text summary of Table 2)
Experimental: as §1, §2

[20] = Staphylococcus aureus CCARM3506(MRSA), read-out: MIC
[21] = Staphylococcus aureus CCARM3519(QRSA), read-out: MIC
[22] = Staphylococcus aureus CCARM3167(MRSA), read-out: MIC
[23] = Staphylococcus aureus CCARM3505(QRSA), read-out: MIC
[24] = Cutibacterium acnes, ATCC6919, Propionibacterium acnes (text summary of Table 2), read-out: MIC
[25] = Propionibacterium acnes ATCC6919

Row | Compound | MIC [1] [µg/mL] | MIC [2] [µg/mL] | MIC [3] [µg/mL] | MIC [4, 20] [µg/mL] | MIC [5, 21] [µg/mL] | MIC ([6]; read-out: MIC) [µg/mL] | MIC ([7]; read-out: MIC) [µg/mL] | MIC ([8]; read-out: MIC) [µg/mL] | MIC ([9]; read-out: MIC) [µg/mL] | MIC ([10]; read-out: MIC) [µg/mL] | MIC ([11]; read-out: MIC) [µg/mL] | MIC [12, 22] [µg/mL] | MIC [13, 23] [µg/mL] | MIC ([14]; read-out: MIC) [µg/mL] | MIC ([15]; read-out: MIC) [µg/mL] | MIC ([16]; read-out: MIC) [µg/mL] | MIC ([17]; read-out: MIC) [µg/mL] | MIC [18, 24] [µg/mL] | MIC [18, 25] [µg/mL] | MIC [19] [µg/mL] | other results
1 | CC1(C)CC[C@]2(C)CC[C@@]3(C(=O)O)C(=CCC4[C@@]5(C)CCC(=O)C(C)(C)C5CC[C@]43C)C2C1 (stereo partly shown) [3-Oxo-12-oleanen-27-oic acid] | 2 to 8 (≈ 4.4 to 17.6 µM) | 4 (≈ 8.8 µM) | 4 (≈ 8.8 µM) | 8 (≈ 17.6 µM) | 8 (≈ 17.6 µM) | 4 (≈ 8.8 µM) | 2 (≈ 4.4 µM) | 2 (≈ 4.4 µM) | 2 (≈ 4.4 µM) | 2 (≈ 4.4 µM) | 16 (≈ 35.2 µM) | 4 (≈ 8.8 µM) | 8 (≈ 17.6 µM) | > 64 | 4 (≈ 8.8 µM) | 2 (≈ 4.4 µM) | 4 (≈ 8.8 µM) | 2 (≈ 4.4 µM) | 2 (≈ 4.4 µM) | 1 to 2 (≈ 2.2 to 4.4 µM) | 
2 | CC1(C)CC[C@]2(C)CC[C@@]3(C(=O)O)C(=CCC4[C@@]5(C)CC[C@@H](O)[C@@](C)(CO)C5CC[C@]43C)C2C1 (stereo partly shown) [Aceriphyllic acid A, Aceriphyllic Acid A] | 2 to 4 (≈ 4.23 to 8.46 µM) | 2 to 4 (≈ 4.23 to 8.46 µM) | 4 (≈ 8.46 µM) | 4 (≈ 8.46 µM) | 4 (≈ 8.46 µM) | 4 (≈ 8.46 µM) | 4 (≈ 8.46 µM) | 2 (≈ 4.23 µM) | 1 (≈ 2.12 µM) | 2 (≈ 4.23 µM) | 32 (≈ 67.7 µM) | 4 (≈ 8.46 µM) | 4 (≈ 8.46 µM) | 8 (≈ 16.9 µM) | 2 (≈ 4.23 µM) | 2 (≈ 4.23 µM) | 2 (≈ 4.23 µM) | 2 (≈ 4.23 µM) | 2 (≈ 4.23 µM) | 1 to 2 (≈ 2.12 to 4.23 µM) | 
3 | CCn1cc(C(=O)O)c(=O)c2cc(F)c(N3CCNCC3)cc21 [Norfloxacin] |  |  | 1 (≈ 3.13 µM) | 1 (≈ 3.13 µM) | 125 (≈ 391 µM) | 8 (≈ 25.1 µM) | 0.25 (≈ 0.783 µM) | 2 (≈ 6.26 µM) | 0.25 (≈ 0.783 µM) | 0.25 (≈ 0.783 µM) | 2 (≈ 6.26 µM) | 8 (≈ 25.1 µM) | 250 (≈ 783 µM) | 8 (≈ 25.1 µM) | 8 (≈ 25.1 µM) | 1 (≈ 3.13 µM) | 8 (≈ 25.1 µM) |  |  |  | 
4 | Cc1onc(-c2ccccc2)c1C(=O)N[C@@H]1C(=O)N2[C@@H]1SC(C)(C)[C@@H]2C(=O)O [Oxacillin] |  |  | 0.25 (≈ 0.623 µM) | 500 (≈ 1250 µM) | 0.5 (≈ 1.25 µM) | 0.06 (≈ 0.149 µM) | 0.25 (≈ 0.623 µM) | 8 (≈ 19.9 µM) | 0.25 (≈ 0.623 µM) | 0.125 (≈ 0.311 µM) | 2 (≈ 4.98 µM) | 500 (≈ 1250 µM) | 0.5 (≈ 1.25 µM) | 2 (≈ 4.98 µM) | 0.06 (≈ 0.149 µM) | 0.25 (≈ 0.623 µM) | 0.06 (≈ 0.149 µM) |  |  |  | 
5 | Oc1cc(Cl)ccc1Oc1ccc(Cl)cc1Cl [Triclosan] |  |  | 0.006 (≈ 0.0207 µM) |  |  |  |  |  |  |  |  |  |  |  |  |  |  |  |  |  | MIC ([4]; Staphylococcus aureus): 0.006 µg/mL (≈ 0.0207 µM); MIC ([5]; Staphylococcus aureus, CCARM3519): 0.006 µg/mL (≈ 0.0207 µM); MIC [6]: 1 µg/mL (≈ 3.45 µM); MIC [7]: 0.006 µg/mL (≈ 0.0207 µM); MIC [8]: 1 µg/mL (≈ 3.45 µM); MIC [9]: 0.003 µg/mL (≈ 0.0104 µM); MIC [10]: 0.003 µg/mL (≈ 0.0104 µM); MIC [11]: 32 µg/mL (≈ 111 µM); MIC ([12]; Staphylococcus aureus): 0.006 µg/mL (≈ 0.0207 µM); MIC ([13]; Staphylococcus aureus, CCARM3505): 0.006 µg/mL (≈ 0.0207 µM); MIC [14]: 4 µg/mL (≈ 13.8 µM); MIC [15]: 1 µg/mL (≈ 3.45 µM); MIC [16]: 0.006 µg/mL (≈ 0.0207 µM); MIC [17]: 1 µg/mL (≈ 3.45 µM)
